Data as given in patent US20100105610A1, “Methods of Inhibiting Tumor Cell Aggressiveness Using the Microenvironment of Human Embryonic Stem Cells” (CHILDREN'S MEMORIAL HOSPITAL, priority 2006, published 2010).

Legend:
Assay type in all cases: cell-based, human
[1] = system: C8161 cells; experiment: Membrane Invasion Culture System (MICS) invasion assay; details: C8161 cells treated with ALK 4/5/7 inhibitor
From the text: Bars represent the mean, normalized, invasion indices±standard deviations.
The aggressiveness of tumor cells is correlated with their ability to invade through the extracellular matrix; thus, the effect of hESC microenvironments on melanoma cell invasion was investigated.
The Membrane Invasion Culture System (MICS) chamber is used to evaluate the degree of tumor cell invasion through matrices in vitro (both stimulated and unstimulated) as described previously.

[2] = system: Nodal; experiment: Nodal protein expression, Western blot
Protocol: (§1) Protein lysates were prepared and quantified as previously described in Hess et al., 2001, Cancer Res. 61:3250-3255. Equal amounts of protein were separated by SDS-polyacrylamide gel electrophoresis under reducing conditions, and the resolved proteins were transferred onto Immobilon-P membranes (Millipore Corp., Bedford, Mass.). Membranes were blocked in 1% TBS, 0.1% Tween 20 (TBS-T) and 5% dry milk powder or 3% gelatin (for Nodal Westerns). Blots were incubated with anti-Nodal or anti-Lefty antibodies (Polyclonal rabbit anti-Nodal (H-110) 1:500 Santa Cruz Biotechnology, Santa Cruz, Calif.; Polyclonal goat anti-Lefty 1:500 R&D Systems, Minneapolis, Minn.), washed in TBS-T, and incubated with the appropriate horseradish peroxidase-labeled secondary antibody. Secondary antibodies were detected by enhanced chemiluminescence (Super Signal; Pierce, Rockford, Ill.) and exposure to autoradiography film (Molecular Technologies, St Louis, Mo.). Nodal protein was detected as two major bands at ˜48 and ˜35 kDa representing precursor and pro-Nodal respectively. Nodal often appeared as multiple bands, likely due to degradation of protein modifications. All experiments were done at least three times.
Conditioned matrices were prepared using hESCs, melanocytes, myoepithelial cells, amniotic fluid derived stem cells, or trophoblast cells on growth factor-reduced Matrigel (14 mg/mL; BD Biosciences) as previously described. Postovit et al., 2006, Stem Cells 24: 501-505. In all cases, cells were 80-100% confluent during the conditioning of the matrix. Alternatively, hESC-derived Lefty protein was seeded into Matrigel prior to polymerization. Human melanoma (C8161) or breast carcinoma (MDA-MB-231) cells, 2.5×10^5 cells/6-well dish, were subsequently exposed to this preconditioned matrix for 3 to 4 days.
as §1, with “primary antibody (Table 2),” for “anti-Nodal or anti-Lefty antibodies (Polyclonal rabbit anti-Nodal (H-110) 1:500 Santa Cruz Biotechnology, Santa Cruz, Calif.; Polyclonal goat anti-Lefty 1:500 R&D Systems, Minneapolis, Minn.),”, “TBS-T or TBS-T containing 0.5M NaCl for the Nodal Westerns,” for “TBS-T,”, “Nodal often appeared as multiple bands, likely due to degradation of protein modifications. All experiments were done at least three times.” left out

[3] = system: VE-Cadherin, Keratin 18; experiment: Western blot of vasculogenic mimicry plasticity biomarkers in C8161 cells; details: C8161 cells on 3-D collagen I matrices for 6 days
Protocol: (A) Western blot analyses of Nodal, phosphorylated SMAD-2, total SMAD 2/3, and Actin in C8161 cells 48 hours after administration of either vehicle or an ALK 4/5/7 inhibitor (SB431542, 1 μM, 10 μM). […] (B) Western blot analyses of Nodal, Tyrosinase and Actin in C8161 cells 24 hours after the administration of either vehicle or different concentrations of ALK inhibitor while (C) is a Western analyses for VE-Cadherin, Keratin 18 and Actin in C8161 cells cultured on 3-D collagen I matrices for 6 days in the presence of vehicle or different concentrations of ALK inhibitor.

[4] = system: C8161 cells; experiment: Vasculogenic mimicry of C8161 cells; details: C8161 cells treated with ALK 4/5/7 inhibitor
[5] = system: Notch 1, 2 and 4; experiment: Notch expression, Western blot in C8161 cells
From the text: Western blot analysis of C8161 cells 72 hrs following the administration of siRNA. […] Western blot analysis of Notch 1, 2 and 4 in C8161 cells treated with the Nodal inhibitor SB431542.

[6] = system: Lefty; experiment: Lefty knockdown in hESCs with FITC-tagged Morpholinos (microscopy, Western blot)
From the text: Cancer cells were also exposed to Matrigel conditioned by hESCs in which Lefty protein expression was knocked down with FITC-tagged Morpholino oligonucleotides specific for Lefty-A and Lefty-B (MO^LEFTY). […] The expression of Oct-3/4 and Nanog, representative of hESC pluripotency, was not affected during this time, and the morphology of the hESC colonies was not altered.
Nodal, and Lefty protein expression were inhibited using anti-sense Morpholino oligonucleotides (Gene Tools Inc., Philomath, Oreg.). The Morpholino sequences were selected based on manufacturer's recommendations (21-25 mer antisense). Fluoroscein (FITC)-conjugated control (5′-[…]-3′) [SEQ ID NO: 19], Nodal (5′-[…]-3′) [SEQ ID NO: 20], Lefty-A (5′-[…]-3′) [SEQ ID NO: 21], and Lefty-B (5′[…]-3′) [SEQ ID NO: 22]. Morpholinos (20 μM) were delivered using the scrape method. Topczewska et al., 2006. Cancer cells were sorted for FITC and were recovered for 1 day prior to experimentation.

[7] = system: H9 hESCs; experiment: hESC pluripotency (Oct-3/4 and Nanog expression, colony morphology); details: Oct-3/4, Nanog
From the text: (A) An abundance of the Nodal inhibitor Lefty within the hESC conditioned matrices (CMTX). Lefty protein is absent in the C8161 cells within its own conditioned matrix (C8161+CMTX). (B) Immunofluorescence localization of FITC-conjugated anti Lefty Morpholinos (MO^LEFTY) in H9 hESC colonies on Matrigel. (C) Western blot analysis of Lefty protein in H9 hESCs treated with either vehicle (Control), MO^Control (MO Control), or MO^Lefty (MO Lefty). Actin is used as a loading control. (D) Real Time RT-PCR analysis of Oct-3/4 and Nanog expression in H9 hESCs treated with either vehicle (H9), MO^CONTROL (MO Control), or MO^LEFTY (MO Lefty). Gene levels were normalized using 18s and bars represent mean gene expression normalized to H9. (E) Real Time RT-PCR analysis of Nodal mRNA expression in C8161 cells cultured for 3 days on control (unconditioned) Matrigel, Matrigel conditioned by hESCs (H9 CMTX) or Matrigel conditioned by hESCs in which Lefty protein expression was […] with Lefty-specific Morpholinos (H9 CMTX MO Lefty). (F) Western blot analysis of Nodal protein in human metastatic melanoma (C8161) and breast carcinoma (MDA-MB-231) cells exposed for 3 days to either control (unconditioned) Matrigel or to Matrigel seeded with Lefty protein purified from hESCs (H9-derived Lefty). […]

[8] = system: C8161 cells; experiment: Anchorage independent growth / soft agar colony formation, C8161; details: 100 ng/mL
Protocol: (§2) An in vitro colony forming assay was used to analyze colony-forming ability of poorly aggressive C81-61 cells, aggressive C8161 cells, C8161 cells treated with MONodal and C8161 cells treated with MONodal and rescued with recombinant Nodal (100 ng/mL). The assay was conducted using 50,000 cells suspended in 0.35% agarose in RPMI containing 10% serum, which were plated into 6-well dishes on 0.5% agar in the same medium. Colonies grew, and pictures were taken at day 7. After 2 weeks, colonies were stained with Crystal Violet and counted.
(§3) Clonogenicity of cells are assessed as previously described. Hamburger, A. W., and Salmon, S. E., 1977, Science 197:461-463. Each parameter is tested in triplicate for clone formation in soft agar. Briefly, […] are plated in 60 mm Petri dishes in complete medium placed over the soft agar. On specific days after the cells are plated, phase contrast images of the colonies are taken using a Zeiss Axiovert 25 with an Hitachi HCV-20 color camera.
(§4) Anchorage independent growth assays were conducted as previously described. Topczewska et al., 2006, Nat. Med. 12: 925-932.

[9] = system: MDA-MB-231 cells; experiment: Anchorage independent growth / soft agar colony formation, MDA-MB-231; details: 100 ng/mL
Protocol: as §3, §4

[10] = system: C81-61 cells; experiment: Soft agar colony formation, C81-61; details: C81-61 cell line
Protocol: as §2, §3

## NC(=O)c1ccc(-c2nc(-c3ccc4c(c3)OCO4)c(-c3ccccn3)[nH]2)cc1 [SB431542]
[1]
  invasive ability: reduction
[2]; C8161 cells, 1 μM, 10 μM, 48 hours
  Nodal expression: down-regulation
[3]
  expression of vasculogenic mimicry plasticity biomarkers: reduction
[4]
  vasculogenic mimicry: abrogation
[5]
  Notch expression: relatively unaffected

## MO^LEFTY: FITC-tagged Morpholino oligonucleotides specific for Lefty-A and Lefty-B (SEQ ID NO: 21, 22) (chain 1 GCCACATGGTGCTGCCCTGGG; chain 2 CTGCATGGTGCTGCCCTGGAGGA; all phosphorodiamidate morpholino (PMO); FITC (fluorescein) conjugated, position not given here)
[6]; H9 hESCs, Western blot, for up to 3 days
  Lefty protein expression in hESCs: efficiently knocked down
[6]; microscopy of treated hESC colonies
  hESC colonies in which the fluorescently-tagged Morpholinos could be detected: over 75%
[7]
  stem cell differentiation: did not induce stem cell differentiation

B1: recombinant Nodal: recombinant Nodal (R&D Systems) (protein, UniProt Q96S42 238-347, looked up)
Nodal homolog: HHLPDRSQLCRKVKFQVDFNLIGWGSWIIYPKQYNAYRCEGECPNPVGEEFHPTNHAYIQSLLKRYQPHRVPSTCCAPVKTKPLSMLYVDNGRVLLDHHKDMIVEECGCL
[8]; C8161 cells exposed to H9 CMTX
  rescue of inhibition of in vitro clonogenicity: partially rescued
[8]; C8161 cells exposed to H9 Lefty-containing matrix
  rescue of inhibition of in vitro clonogenicity: completely rescued
[8]; C8161 cells treated with MONodal
  rescue of reduced colony formation: rescued
[9]; MDA-MB-231 cells exposed to H9 CMTX
  rescue of inhibition of in vitro clonogenicity: partially rescued
[9]; MDA-MB-231 cells exposed to H9 Lefty-containing matrix
  rescue of inhibition of in vitro clonogenicity: completely rescued
[10]
  colony formation: did not induce colony formation

B2: rLefty: recombinant Lefty-B (R&D Systems) (protein, UniProt O75610 77-366, looked up)
Left-right determination …: RFSQSFREVAGRFLALEASTHLLVFGMEQRLPPNSELVQAVLRLFQEPVPKAALHRHGRLSPRSARARVTVEWLRVRDDGSNRTSLIDSRLVSVHESGWKAFDVTEAVNFWQQLSRPRQPLLLQVSVQREHLGPLASGAHKLVRFASQGAPAGLGEPQLELHTLDLGDYGAQGDCDPEAPMTEGTRCCRQEMYIDLQGMKWAENWVLEPPGFLAYECVGTCRQPPEALAFKWPFLGPRQCIASETDSLPMIVSIKEGGRTRPQVVSLPNMRVQKCSCASDGALVPRRLQP
[2]; C8161 cells
  dose needed to inhibit Nodal protein relative to hESC counterpart: higher doses
[2]; C8161 cells exposed 48 hrs to 0-1000 ng/mL
  Nodal expression: reduces
